Source: patent US20250241895A1 (GH RESEARCH IRELAND LIMITED, priority 2022, published 2025)

System: patients with postpartum depression (PPD)
Assay: Clinical trial of inhaled 5-MeO-DMT in postpartum depression
Details: for BIMF functional domain Adjustment score / BIMF functional domain Infant Care score: maximum possible 12; for BIMF functional domain Mother-Child Interaction score / BIMF functional domain Self Care score / BIMF functional domain Social Support score: maximum possible 18; for BIMF functional domain Management score: maximum possible 36; for BIMF functional domain Psychological Well-being score: maximum possible 60
Protocol: The single-arm, open-label clinical trial will involve 15 adult female patients with clinically diagnosed postpartum depression (PPD).
The second dose (12 mg) will only be administered if: • a. […] The 6 mg dose was safe and well-tolerated according to the investigator, • c. Any psychoactive effects (PsE) of the prior dose have subsided, and • d. Pre-dose vital parameters and forced expiratory volume in one second (FEV1) are in normal range, or if outside of the normal range, are not clinically significant according to the investigator. • 3. Similarly, a third dose (18 mg) will only be administered if: • a. […] The 12 mg dose was safe and well-tolerated according to the investigator, and • c. Any PsE of the prior dose have subsided, and • d. Pre-dose vital parameters and forced expiratory volume in one second (FEV1) are in normal range, or if outside of the normal range, are not clinically significant according to the investigator.
The patients will be assessed for a peak psychedelic experience (based on a patient-scored visual analogue scale, the PE scale), sedation, and other endpoints after dosing. Follow-up visits are planned for Day 1, and Day 7 after the dosing day.
The following criteria must be met by all patients considered for clinical trial participation: • 1. Is female and in the age range between 18 and 45 years (inclusive) at screening. • 2. Has a body mass index (BMI) in the range of 18.5 and 35 kg/m^2 (inclusive) at screening. • 3. Meets the trial criteria for PPD as assessed by a trial psychiatrist or registered psychologist: • a. Diagnosis of Major Depressive Disorder without psychotic features, confirmed by the Mini-International Neuropsychiatric Interview (MINI), with peri-partum onset that began no earlier than gestation and no later than the first 4 weeks postpartum. • b. Has a Montgomery-Åsberg Depression Rating Scale (MADRS) total score of equal to or greater than 28 at screening and pre-dose on Day 0. • 6. […] Patients must have a negative pregnancy test at screening and on the pre-test day (Day −1). • 5. Is willing to delay start of other antidepressant or anxiety medication until after the end of the trial at Day 7 and agrees to keep any psychotherapy unchanged during the trial.
A potential patient who meets any of the following key exclusion criteria will be excluded from participation in this trial: • 1. Has, based on history, psychiatric assessment, and evaluation of the MINI, a current or prior diagnosis of bipolar disorder, a manic or hypomanic episode, a psychotic disorder, Major Depressive Disorder (MDD) or other mood disorder with psychotic features, obsessive compulsive disorder, post-traumatic stress disorder (PTSD), autism spectrum disorder, borderline personality disorder, schizophrenia, delusional disorder, paranoid personality disorder, schizoaffective disorder, clinically significant intellectual disability, or any other psychiatric comorbidity that renders the patient unsuitable for the trial according to the investigator's judgment. • 2. Has one or more first or second degree relatives with a current or previously diagnosed bipolar disorder, psychotic disorder or other mood disorder (including MDD) with psychotic features. • 3. Is in the judgement of a trial psychiatrist or registered psychologist, at significant risk for suicide based on history, psychiatric assessment, and evaluation of suicidal ideation and suicidal behaviour based on the Columbia-Suicide Severity Rating Scale (C-SSRS). • 4. Has taken anti-depressive medication within 14 days or 5 half-lives (whichever is longer) prior to dosing (exception: within the last 5 weeks in the case of fluoxetine). • 5.

[1] = PPD patient n=1, 6 mg then 12 mg
[2] = PPD patient n=1, 6 mg then 12 mg, 2 hr
[3] = PPD patient n=1, 6 mg then 12 mg, Day 1
[4] = PPD patient n=1, 6 mg then 12 mg, Day 7
[5] = PPD patient n=1, 6 mg then 12 mg, discharge
[6] = PPD patient n=1, Day 7 vs Day 0

Compound: COc1ccc2[nH]cc(CCN(C)C)c2c1 [5-MeO-DMT]
- tolerability of the inhalation procedure (PPD patient n=1): well tolerated with no inhalation-related adverse events
- MADRS remission criteria (MADRS total score equal or less than 10) [1]: fulfilled
- MADRS response criteria (at least 50% improvement from baseline) [1]: fulfilled
- time to clinical remission after administration [1]: ≤ 2 h
- durability of clinical response (PPD patient n=1, 6 mg then 12 mg given on one day): sustained over the 7-day follow-up period
- Total MADRS improvement [2]: 24
- Total MADRS score [2]: 5
- BPRS Tension improvement [3]: 5
- Total MADRS improvement [3]: 29
- Total MADRS score [3]: 0
- BIMF item 1: I am a good mother [4]: 6
- BIMF item 2: I feel rested [4]: 2
- BIMF item 3: I am comfortable with the way I've chosen to feed my baby (either bottle or breast, or both) [4]: 6
- BIMF item 4: My baby and I understand each other [4]: 5
- BIMF item 5: I am able to relax and enjoy time with my baby [4]: 6
- BIMF item 6: There are people in my life that I can trust to care for my baby when I need a break [4]: 6
- BIMF item 8: I am getting enough adult interaction [4]: 6
- BIMF item 9: I am getting enough encouragement from other people [4]: 6
- BIMF item 10: I trust my own feelings (instincts) when it comes to taking care of my baby [4]: 6
- BIMF item 11: I take a little time each week to do something for myself [4]: 6
- BIMF item 12: I am taking good care of my baby's physical needs (feedings, changing diapers, doctor's appointments) [4]: 6
- BIMF item 13: I am taking good care of my physical needs (eating, showering, etc) [4]: 5
- BIMF item 14: I make good decisions about my baby's health and well being [4]: 6
- BIMF item 15: My baby and I are getting into a routine [4]: 6
- BIMF item 16: I worry about how other people judge me (as a mother) [4]: 5
- BIMF item 17: I am able to take care of my baby and my other responsibilities [4]: 5
- BIMF item 18: Anxiety or worry often interferes with my mothering ability [4]: 5
- BIMF item 20: I am satisfied with the job I am doing as a new mother [4]: 5
- Total MADRS improvement [4]: 28
- Total MADRS score [4]: 1
- BIMF functional domain Adjustment score [4]: 6
- BIMF functional domain Infant Care score [4]: 12
- BIMF functional domain Mother-Child Interaction score [4]: 17
- BIMF functional domain Self Care score [4]: 13
- BIMF functional domain Social Support score [4]: 18
- BIMF functional domain Management score [4]: 33
- BIMF functional domain Psychological Well-being score [4]: 53
- BPRS Blunted Affect score [5]: 1
- BPRS Conceptual disorganization score [5]: 1
- BPRS Disorientation score [5]: 1
- BPRS Grandiosity score [5]: 1
- BPRS Hallucinatory behaviour score [5]: 1
- BPRS Hostility score [5]: 1
- BPRS Mannerisms and Posturing score [5]: 1
- BPRS Motor retardation score [5]: 1
- BPRS Suspiciousness score [5]: 1
- BPRS Tension improvement [5]: 5
- BPRS Uncooperativeness score [5]: 1
- BPRS Unusual Thought Content score [5]: 1
- BIMF item 1: I am a good mother (PPD patient n=1, Day 0): 6
- BIMF item 2: I feel rested (PPD patient n=1, Day 0): 0
- BIMF item 3: I am comfortable with the way I've chosen to feed my baby (either bottle or breast, or both) (PPD patient n=1, Day 0): 6
- BIMF item 4: My baby and I understand each other (PPD patient n=1, Day 0): 5
- BIMF item 5: I am able to relax and enjoy time with my baby (PPD patient n=1, Day 0): 5
- BIMF item 6: There are people in my life that I can trust to care for my baby when I need a break (PPD patient n=1, Day 0): 6
- BIMF item 8: I am getting enough adult interaction (PPD patient n=1, Day 0): 6
- BIMF item 9: I am getting enough encouragement from other people (PPD patient n=1, Day 0): 5
- BIMF item 10: I trust my own feelings (instincts) when it comes to taking care of my baby (PPD patient n=1, Day 0): 5
- BIMF item 11: I take a little time each week to do something for myself (PPD patient n=1, Day 0): 5
- BIMF item 12: I am taking good care of my baby's physical needs (feedings, changing diapers, doctor's appointments) (PPD patient n=1, Day 0): 6
- BIMF item 13: I am taking good care of my physical needs (eating, showering, etc) (PPD patient n=1, Day 0): 4
- BIMF item 14: I make good decisions about my baby's health and well being (PPD patient n=1, Day 0): 6
- BIMF item 15: My baby and I are getting into a routine (PPD patient n=1, Day 0): 5
- BIMF item 16: I worry about how other people judge me (as a mother) (PPD patient n=1, Day 0): 3
- BIMF item 17: I am able to take care of my baby and my other responsibilities (PPD patient n=1, Day 0): 5
- BIMF item 18: Anxiety or worry often interferes with my mothering ability (PPD patient n=1, Day 0): 2
- BIMF item 19: As time goes on, I am getting better at taking care of my baby (PPD patient n=1, Day 0): 0
- BIMF item 20: I am satisfied with the job I am doing as a new mother (PPD patient n=1, Day 0): 6
- reported adverse events (cramping left abdominal pain and headache) (PPD patient n=1, Day 0): mild, short-lasting and resolved spontaneously
- BIMF functional domain Adjustment score (PPD patient n=1, Day 0): 5
- BIMF functional domain Infant Care score (PPD patient n=1, Day 0): 12
- BIMF functional domain Mother-Child Interaction score (PPD patient n=1, Day 0): 15
- BIMF functional domain Self Care score (PPD patient n=1, Day 0): 9
- BIMF functional domain Social Support score (PPD patient n=1, Day 0): 17
- BIMF functional domain Management score (PPD patient n=1, Day 0): 28
- BIMF functional domain Psychological Well-being score (PPD patient n=1, Day 0): 44
- BIMF TOTAL score (PPD patient n=1, Day 0, possible total 120): 92
- BIMF total score improvement, percent (PPD patient n=1, Day 7): 14%
- BIMF TOTAL score, Δ (Day 7) [6]: 13
- BIMF functional domain Adjustment, % Improvement [6]: 20.00%
- BIMF functional domain Infant Care, % Improvement [6]: 0.00%
- BIMF functional domain Management, % Improvement [6]: 18%
- BIMF functional domain Self Care, % Improvement [6]: 44%
- BPRS Anxiety score (PPD patient n=1, baseline): 7
- BPRS Depressive Mood score (PPD patient n=1, baseline): 6
- BPRS Emotional Withdrawal score (PPD patient n=1, baseline): 5
- BPRS Excitement score (PPD patient n=1, baseline): 2
- BPRS Guilt Feelings score (PPD patient n=1, baseline): 6
- BPRS Somatic Concern score (PPD patient n=1, baseline): 6
- MADRS Apparent sadness score (PPD patient n=1, baseline): 5
- MADRS Concentration Difficulties score (PPD patient n=1, baseline): 0
- MADRS Inability to Feel score (PPD patient n=1, baseline): 3
- MADRS Reduced Sleep score (PPD patient n=1, baseline): 5
- MADRS Reduced appetite score (PPD patient n=1, baseline): 0
- MADRS Reported sadness score (PPD patient n=1, baseline): 4
- MADRS Suicidal Thoughts score (PPD patient n=1, baseline): 0
- Total MADRS score (PPD patient n=1, baseline): 29
- changes in vital parameters (PPD patient n=1, shortly after administration): temporary, clinically non-relevant increase in heart rate and blood pressure
- ECG, safety laboratory analyses, CADSS (PPD patient n=1, ECG 3 hours, laboratory 7 days, CADSS 3 hours, 1 day and 7 days): unremarkable
